US20100137344A1, “INDUCTION OF ANALGESIA IN NEUROPATHIC PAIN” (University Court of the University of Edinburgh, priority 2006, published 2010)
Like-named read-outs stand apart in the source and are kept apart here.

What was measured:
[1] = system: rats with chronic constriction injury (CCI) to sciatic nerve; assay: Intrathecal application in CCI rats, behavioural reflex testing (PWL, PWT); format: in vivo, rat; settings: for duration of significant reversal of sensitised responses: (−)-menthol 200 nmol; for EC50: Rattus norvegicus, central
Protocol: (§1) Pain models were generated under halothane anaesthesia (Zeneca, Cheshire, UK). For the chronic constriction injury (CCI) model of neuropathic pain, four ligatures were tied loosely to constrict the sciatic nerve at mid-thigh level (as described previously^[39]). An inflammatory pain model was generated by injecting 100 μl of Complete Freund's Adjuvant (CFA, Sigma-Aldrich Ltd) into the ventral surface of the right hindpaw^[39]. A model of peripheral demyelination-induced pain was produced by focal application of lysolecithin to the sciatic nerve^[40]. Peak behavioural sensitisation was observed post-surgically between days 10-16 for CCI, 1-3 for CFA, and 7-14 for lysolecithin, when pharmacological and electrophysiological experiments and tissue removal were conducted.
(§2) Thermal sensitivity was assessed by measuring paw withdrawal latency (PWL, s) in response to a noxious thermal stimulus (Hargreaves' thermal stimulator, Linton Instrumentation, Diss, UK) directed to the hindpaw mid-plantar glabrous surface. Mechanical sensitivity was recorded as the paw withdrawal threshold (PWT, mN/mm^2) to calibrated von Frey filaments (Stoelting, Ill., US), as previously described^[39]. Sensitivity to noxious cold was assessed by placing animals in a waterbath with an aluminium floor containing 1 cm deep 4° C. water and counting the time the paw was held suspended over a 20 s period.
(§3) The following drugs were applied intrathecally in a 50 μl volume of saline-based vehicle at 37° C.: icilin (2.5-200 μM in saline with 0.2% dimethylformamide, DMF), LY 341495 (100 μM in saline), UBP 1112 (200 μM in saline), 2R,4R-APDC ((2R, 4R)-4-aminopyrrolidine-2,4-dicarboxylate), 300 μM in saline), ACPT-III ((1R,3R,4S)-1-aminocyclopentane-1,3,4-tricarboxylic acid), 3 mM in saline), AP-4, ((L-(1)-2-amino-4-phosphonobutyric acid), 3 mM in saline), naloxone (0.5 mM in saline), NMDA (75 μM in saline) and ACPC (1-aminocyclopropanecarboxylic acid, 15 μM in saline) (Tocris Cookson, Bristol, UK), (−)-menthol (1R,2S,5R-(−)-menthol, 4 mM in saline), cinnamaldehyde (1.5 mM in saline) and Ruthenium Red (5 μM in saline) (Sigma-Aldrich Co. Ltd, UK) and allicin (0.5 mM in saline with 0.5% DMF) and diallyl disulphide (DADS, 1 mM in saline with 0.5% DMF) (LKT Laboratories Inc., St Paul, Minn., USA). Drugs were injected into the L5/6 intrathecal space under brief halothane anaesthesia, using a 25-gauge needle microsyringe (BD Biosciences, Oxford, UK), as described previously^[39] in animals that were at peak levels of behavioural sensitisation. Behavioural reflex testing commenced 15 min following injection to allow recovery from anaesthesia^[40,41,42] and continued every 5 min thereafter until readings returned to baseline levels (n=6 in each case). We, and others^[40,41,42] find complete recovery from anaesthetic by 15 minutes. All appropriate controls were carried out to eliminate the possibility of effects due to vehicle or to injection procedure.
(§4) The TRPM8 channel activators, icilin and (−)-menthol were tested in CCI and naïve animals. The effects of icilin were additionally assessed in animals with CFA-induced inflammation or with lysolecithin-induced demyelination. Icilin was also co-administered with the μ-opioid receptor antagonist naloxone, the Group II metabotropic glutamate receptor (mGluR) antagonist, LY 341495, or the Group III mGluR antagonist, UBP 1112. The effects of these antagonists alone as well as effects of the Group II mGluR agonist, 2R,4R-APDC and the Group III mGluR agonists, ACPT-III and AP-4, were assessed in CCI animals. The TRPA1 channel activator, cinnamaldehyde, alone and with icilin, was tested in CCI animals and in naïve animals. Further TRPA1 channel activators, allicin and diallyl disulphide were assessed in naïve animals. Both icilin and cinnamaldehyde effects in CCI animals were also investigated in the additional presence of Ruthenium Red.

[2] = system: rats with lysolecithin-induced demyelination of sciatic nerve; assay: Intrathecal icilin in lysolecithin demyelination-induced pain model (PWL, PWT); format: in vivo, rat; settings: icilin 10 nmol, i.t.
Protocol: as §1, §2
as §3, with “Drugs were injected into the L5/6 intrathecal space under brief halothane anaesthesia, using a 25-gauge needle microsyringe (BD Biosciences, Oxford, UK), as described previously^[39] in animals that were at peak levels of behavioural sensitisation.” left out, “We, and others^[40,41,42] find complete recovery from anaesthetic by 15 minutes. All appropriate controls were carried out to eliminate the possibility of effects due to vehicle or to injection procedure.” left out
The TRPM8 channel activators, icilin and (−)-menthol were tested in CCI and naïve animals. The effects of icilin were additionally assessed in animals with CFA-induced inflammation or with lysolecithin-induced demyelination. […]

[3] = system: rats sensitised by the TRPA1 activator cinnamaldehyde; assay: Cinnamaldehyde-induced sensitisation and its reversal by icilin (PWL, PWT); format: in vivo, rat; settings: for Mean % reversal of mechanical sensitisation (after 15-30 mins) / Mean % reversal of thermal sensitisation (after 15-30 mins) / PWL (s) difference from control (+ icilin) / PWT (mN/mm^2) difference from control (+ icilin): icilin 10 nmol, i.t.
Protocol: as §2, §3, §4
Icilin was applied at concentrations of 2.5-500 μM (in water with 0.2% DMF), by placing CCI or naïve rats unrestrained for 5 min in a 1 cm deep waterbath (sufficient to cover paws), which was thermostatically controlled to a temperature of 30° C., or by very lightly anaesthetising rats and immersing hindpaws in small tubes containing 5 ml icilin (500 μM-5 mM, with a vehicle of 45% dimethylformamide in 0.2% aqueous Tween 80) for 5 min, followed by sensory testing for 60-80 mins. The effects of (−)-menthol and its stereoisomers isomenthol (1S,2R,5R-menthol,) and (+)-menthol (1S,2R,5S(+)-menthol) (4-16 mM in 80% ethanol) were also assessed. Relevant vehicles were always assessed in similar experiments. As a contrast, the effect of cinnamaldehyde (1.5 mM in water) and the effect of cinnamaldehyde with additional icilin (80 μM in water with 0.2% DMF) were assessed in naïve animals. […]

[4] = system: CCI model of neuropathic pain; assay: Cold allodynia in CCI model, Peltier controlled footplate; format: in vivo, rat; settings: icilin 200 μM topical
Protocol: In the CCI model of neuropathic pain, cold allodynia was assessed by scoring the number of paw flick-associated paw withdrawals from a Peltier controlled footplate that was reduced in temperature from control (30° C.) to mild cooling (20° C.). Icilin (200 μM) was applied topically (as in FIG. 1). Values are shown as means±SEM, ipsilateral (⋄) to nerve injury. † Indicates statistically significant reversal of cool allodynia.

[5] = system: model of cancer-induced bone pain; assay: Cancer-induced bone pain model (von Frey, rotarod paw lifts); format: in vivo; settings: topical icilin
Description: The model of cancer-induced bone pain was set up according to Medhurst et al., 2002 Pain 96: 129-40.

[6] = (−)-menthol 200 nmol intrathecal alone, 20-30 minutes post-injection
[7] = intrathecal, non-linear curve-fitting

CC(C)[C@@H]1CC[C@@H](C)C[C@H]1O [(−)-menthol, 1R,2S,5R-(−)-menthol]
mean percentage reversal of sensitisation, PWL [1, 6]: 86.1±8.1% | mean percentage reversal of sensitisation, PWT [1, 6]: 80.6±4.2% | duration of significant reversal of sensitised responses ([1]; intrathecal, icilin 10 nmol): 35 to 40 min

O=C1NC(c2cccc([N+](=O)[O-])c2)=CCN1c1ccccc1O [icilin, 1-(2′-hydroxyphenyl)-4-(3″-nitrophenyl)-1,2,3,6-tetrahydropyrimidin-2-one]
Ipsilateral PWL ([1]; CCI, NMDA/ACPC in the additional presence of icilin 10 nmol): 14.9 ± 0.6 s | Ipsilateral PWT ([1]; CCI, NMDA/ACPC with co-injection of icilin 10 nmol): 3482.7±174.3 mN/mm^2 | Mean % reversal of mechanical sensitisation (after 15-30 mins) ([1]; CCI, icilin 10 nmol, i.t.): 76.8 ± 5.3% | Mean % reversal of thermal sensitisation (after 15-30 mins) ([1]; CCI, icilin 10 nmol, i.t.): 84.7 ± 6.0% | PWL (s) difference from control (+ icilin) ([1]; CCI, icilin 10 nmol, i.t.): 0.9 ± 1.2 s | PWT (mN/mm^2) difference from control (+ icilin) ([1]; CCI, icilin 10 nmol, i.t.): 775.4 ± 467.7 mN/mm^2 | EC50 ([1]; intrathecal, non-linear curve-fitting, read-out: EC50 (dose for 50% of maximal effect), PWL): 0.17 ± 0.02 nM | EC50 ([1]; intrathecal, non-linear curve-fitting, read-out: EC50 (dose for 50% of maximal effect), PWT): 0.31 ± 0.02 nM | duration of significant reversal of sensitised responses ([1]; intrathecal, icilin 10 nmol): up to 55 min | maximal effect, reversal of sensitisation, PWL [1, 7]: 91.6±9.9% | maximal effect, reversal of sensitisation, PWT [1, 7]: 82.6±6.8% | dose by which analgesic effects were statistically significant ([1]; intrathecal, thermal and mechanical tests, nerve injury side): 0.125 nmol | Mean % reversal of mechanical sensitisation (after 15-30 mins) [2]: 63.3 ± 6.4% | Mean % reversal of thermal sensitisation (after 15-30 mins) [2]: 69.2 ± 5.1% | PWL (s) difference from control (+ icilin) [2]: 2.4 ± 1.2 s | PWT (mN/mm^2) difference from control (+ icilin) [2]: 1102.5 ± 422.5 mN/mm^2 | Mean % reversal of mechanical sensitisation (after 15-30 mins) ([3]; Cinnamaldehyde (intrathecal)): 92.6 ± 2.8% | Mean % reversal of thermal sensitisation (after 15-30 mins) ([3]; Cinnamaldehyde (intrathecal)): 91.5 ± 4.1% | PWL (s) difference from control (+ icilin) ([3]; Cinnamaldehyde (intrathecal)): 0.5 ± 1.8 s | PWT (mN/mm^2) difference from control (+ icilin) ([3]; Cinnamaldehyde (intrathecal)): 150.3 ± 125.2 mN/mm^2 | Mean % reversal of mechanical sensitisation (after 15-30 mins) ([3]; Cinnamaldehyde (topical)): 100.0 ± 0.0% | Mean % reversal of thermal sensitisation (after 15-30 mins) ([3]; Cinnamaldehyde (topical)): 92.0 ± 6.1% | PWL (s) difference from control (+ icilin) ([3]; Cinnamaldehyde (topical)): 0.4 ± 1.6 s | PWT (mN/mm^2) difference from control (+ icilin) ([3]; Cinnamaldehyde (topical)): 0.0 ± 0.0 mN/mm^2 | effect on sensitisation by topical cinnamaldehyde ([3]; topical icilin 200 μM, data not shown): reversed | analgesia against cold allodynia (paw withdrawals, footplate 30° C. to 20° C.) [4]: provides analgesia against the cold allodynia | analgesia in cancer-induced bone pain (mechanical allodynia, movement-evoked pain) [5]: causes analgesia
